As a reminder, the melting point is the temperature, or range, at which the solid turns liquid.

Where only a bound is given, the exact number is not on record here.

`CCCCCC1C(C(=O)c2ccc(C)o2)=C(O)C(=O)N1c1nc2ccc(S(C)(=O)=O)cc2s1` (stereo not shown) [Compound 181] gave a melting point of 171 to 173 °C.
As for `O=C(COc1ccccc1Cl)C1=C(O)C(=O)N(c2nc3ccc(F)cc3s2)C1c1ccc(F)cc1` (stereo not shown) [Compound 459], the figure is 234 to 235 °C; as for `Cc1ccc(C(=O)C2=C(O)C(=O)N(Cc3ccco3)C2c2ccccc2F)o1` (stereo not shown) [Compound 502], 177 to 178 °C; as for `COc1ccc2nc(N3C(=O)C(O)=C(C(=O)c4ccc(C)o4)C3c3ccco3)sc2c1` (stereo not shown) [Compound 153], 240 to 242 °C.
With `O=C(C1=C(O)C(=O)N(c2nc3c(Cl)cccc3s2)C1c1ccccc1F)C1CCC1` (stereo not shown) [Compound 573] the figure was 220 to 221 °C.
In turn, `Cc1ccc(C(=O)C2=C(O)C(=O)N(c3nc4c(Cl)cccc4s3)C2c2ccc(OCc3ccccc3)cc2)o1` (stereo not shown) [Compound 472] registered a melting point of 240 to 241 °C.
`Cc1ccc(C(=O)C2=C(O)C(=O)N(c3nc4ccc(F)cc4s3)C2c2ccc(OCc3ccccc3)cc2)o1` (stereo not shown) [Compound 471] displayed a melting point of 191 to 193 °C.
With `Cc1ccc(C(=O)C2=C(O)C(=O)N(CCc3c[nH]c4ccccc34)C2c2ccc(F)cc2)o1` (stereo not shown) [Compound 594] the figure was 157 to 158 °C.
On to `Cc1ccc(C(=O)C2=C(O)C(=O)N(c3nc4ccc(Cl)cc4s3)C2c2ccccc2C)o1` (stereo not shown) [Compound 626], for which the melting point is 254 to 256 °C.
As for `CCc1ccc2nc(N3C(=O)C(O)=C(C(=O)c4ccc(C)o4)C3c3ccc(Cl)cc3)sc2c1` (stereo not shown) [Compound 133], the figure is 236 to 238 °C; as for `Cc1ccc(C(=O)C2=C(O)C(=O)N(c3nc4c(Cl)cccc4s3)C2c2ccc(C)o2)o1` (stereo not shown) [Compound 610], 224 to 225 °C.
`Cc1ccc(C(=O)C2=C(O)C(=O)N(c3nc4c(Cl)cccc4s3)C2c2ccc3c(c2)OCCO3)o1` (stereo not shown) [Compound 598]: the melting point lay within 251 to 252 °C.
`Cc1ccc(C(=O)C2=C(O)C(=O)N(c3nc4ccc(F)cc4s3)C2c2ccc(-c3ccccc3)cc2)o1` (stereo not shown) [Compound 465] came in with a melting point of 228 to 231 °C.
In turn, `O=C(COc1ccccc1)C1=C(O)C(=O)N(c2nc3ccc(Cl)cc3s2)C1c1ccc(F)cc1` (stereo not shown) [Compound 447] yielded a melting point of 203 to 204 °C.
As for `CC(=O)C1=C(O)C(=O)N(c2nc3ccc(Cl)cc3s2)C1c1ccc(F)cc1` (stereo not shown) [Compound 420], the melting point lay within 238 to 239 °C.
As for `Cc1ccc(C(=O)C2=C(O)C(=O)N(c3nc4ccc(Cl)cc4s3)C2c2ccc3c(c2)OCCO3)o1` (stereo not shown) [Compound 596], the figure is 236 to 237 °C; as for `Cc1ccc(C(=O)C2=C(O)C(=O)N(c3nc4ccc([N+](=O)[O-])cc4s3)C2c2ccccc2F)o1` (stereo not shown) [Compound 152], 255 to 257 °C; as for `COCC(=O)C1=C(O)C(=O)N(c2nc3ccc(Cl)cc3s2)C1c1ccccc1F` (stereo not shown) [Compound 441], 253 to 254 °C.
As for `Cc1ccc(C(=O)C2=C(O)C(=O)N(c3nc4ccc(Cl)cc4s3)C2c2ccc(F)c(F)c2)o1` (stereo not shown) [Compound 461, 1-(6-Chlorobenzo[d]thiazol-2-yl)-5-(3,4-difluorophenyl)-3-hydroxy-4-(5-methylfuran-2-carbonyl)-1H-pyrrol-2(5H)-one], the figure is 235 to 236 °C; as for `CCOc1ccc2nc(N3C(=O)C(O)=C(C(=O)c4ccc(C)o4)C3C3CCOC3)sc2c1` (stereo not shown) [Compound 190], 185 to 186 °C; as for `CCOC(=O)CCC(=O)C1=C(O)C(=O)N(c2nc3ccc(F)cc3s2)C1c1ccccc1F` (stereo not shown) [Compound 496], 184 to 185 °C.
As for `Cc1ccc(C(=O)C2=C(O)C(=O)N(c3nc4ccc(Cl)cc4s3)C2c2cccc(Oc3ccccc3)c2)o1` (stereo not shown) [Compound 473], the figure is 226 to 227 °C; as for `CC(C)(C)C(=O)C1=C(O)C(=O)N(c2nc3ccc(Cl)cc3s2)C1c1ccc(F)cc1` (stereo not shown) [Compound 421], 239 to 240 °C.
Molecule `Cc1ccc(C(=O)C2=C(O)C(=O)N(c3nc4ccc(F)cc4s3)C2c2ccc(F)c(F)c2)o1` (stereo not shown) [Compound 462] gave a melting point of 223 to 224 °C.
With `CCOc1ccc2nc(N3C(=O)C(O)=C(C(=O)c4ccc(C)o4)C3c3cccc(O)c3)sc2c1` (stereo not shown) [Compound 223], the melting point was in the range of 254 to 255 °C.
The molecule `Cc1ccc(C(=O)C2=C(O)C(=O)N(c3nc4c(Cl)cccc4s3)C2c2ccc(C#N)cc2)o1` (stereo not shown) [Compound 622] had a melting point of 273 to 274 °C.
Turning to `Cc1ccc(C(=O)C2=C(O)C(=O)N(c3ccncn3)C2c2ccccc2F)o1` (stereo not shown) [Compound 189], the melting point lay within 235 to 236 °C.
Molecule `O=C(C1=C(O)C(=O)N(c2nc3ccc(Cl)cc3s2)C1c1ccccc1F)c1nccs1` (stereo not shown) [Compound 435] displayed a melting point of 309 to 310 °C.
Molecule `Cc1ccc(C(=O)C2=C(O)C(=O)N(c3nc4c(Cl)cccc4s3)C2c2ccc(Oc3ccccc3)cc2)o1` (stereo not shown) [Compound 469] came in with a melting point of 208 to 209 °C.
The molecule `O=C(C1=C(O)C(=O)N(c2nc3ccc(Cl)cc3s2)C1c1ccc(Cl)cc1)C1CC1` (stereo not shown) [Compound 453] yielded a melting point of 245 to 246 °C.
The molecule `Cc1ccc(C(=O)C2=C(O)C(=O)N(c3nc4c(Cl)cccc4s3)C2c2ccc(-c3ccccc3)cc2)o1` (stereo not shown) [Compound 466] came in with a melting point of 222 to 223 °C.
In turn, `O=C(C1=C(O)C(=O)N(c2nc3ccc(F)cc3s2)C1c1ccccc1F)C1CC1` (stereo not shown) [Compound 454] had a melting point of 234 to 235 °C.
In the case of `CC(=O)NC(CC(C)C)C(=O)C1=C(O)C(=O)N(c2nc3ccc(Cl)cc3s2)C1c1ccc(F)cc1` (stereo not shown) [Compound 647], the melting point lay within 148 to 152 °C.
Turning to `CCOc1ccc2nc(N3C(=O)C(O)=C(C(=O)c4ccc(C)o4)C3c3cccc(F)c3)sc2c1` (stereo not shown) [Compound 222], the melting point was in the range of 248 to 249 °C.
Consider `CCOc1ccc2nc(N3C(=O)C(O)=C(C(=O)c4ccc(C)o4)C3c3cccc(C(=O)OC)c3)sc2c1` (stereo not shown) [Compound 255], for which the melting point was 228 to 229 °C.
For the molecule `Cc1ccc(C(=O)C2=C(O)C(=O)N(c3nc4c(Cl)cccc4s3)C2c2cccc(F)c2F)o1` (stereo not shown) [Compound 625], the melting point was 274 to 275 °C.
In turn, `O=C(C1=C(O)C(=O)N(c2nc3c(Cl)cccc3s2)C1c1ccccc1F)C1CC1` (stereo not shown) [Compound 456] registered a melting point of 253 to 254 °C.
Molecule `Cc1ccc(C(=O)C2=C(O)C(=O)N(c3nc4ccc(F)cc4s3)C2c2cccc(F)c2F)o1` (stereo not shown) [Compound 624] gave a melting point of 239 to 240 °C.
`Cc1ccc(C(=O)C2=C(O)C(=O)N(c3nc4ccc(F)cc4s3)C2c2cccc(OCc3ccccc3)c2)o1` (stereo not shown) [Compound 476]: the melting point was in the range of 187 to 188 °C.
With `COc1ccc2nc(N3C(=O)C(O)=C(C(=O)c4ccc(C)o4)C3c3ccc(OC)c(O)c3)sc2c1` (stereo not shown) [Compound 156] the figure was 241 to 242 °C.
As for `Cc1ccc(C(=O)C2=C(O)C(=O)N(Cc3ccco3)C2c2ccc(F)cc2)o1` (stereo not shown) [Compound 503], the figure is 213 to 214 °C; as for `CCOc1ccc2nc(N3C(=O)C(O)=C(C(=O)c4ccc(C)o4)C3c3cccs3)sc2c1` (stereo not shown) [Compound 257], 235 to 236 °C.
`O=C(COc1ccccc1)C1=C(O)C(=O)N(c2nc3ccc(F)cc3s2)C1c1ccccc1F` (stereo not shown) [Compound 448] registered a melting point of 197 to 198 °C.
With `CCCCOc1ccc(C2C(C(=O)c3ccc(C)o3)=C(O)C(=O)N2c2nc3ccc(OCC)cc3s2)cc1` (stereo not shown) [Compound 187] the figure was 191 to 192 °C; with `Cc1ccc(C(=O)C2=C(O)C(=O)N(c3nc4ccc(Cl)cc4s3)C2c2cccc([N+](=O)[O-])c2)o1` (stereo not shown) [Compound 139], over 300 °C; with `O=C(C1=C(O)C(=O)N(c2nc3c(Cl)cccc3s2)C1c1ccc(F)cc1)C1CCC1` (stereo not shown) [Compound 574], 232 to 233 °C.
In turn, `CCOc1ccc2nc(N3C(=O)C(O)=C(C(=O)c4ccc(C)o4)C3c3sc4ccccc4c3C)sc2c1` (stereo not shown) [Compound 250] displayed a melting point of 227 to 228 °C.
The molecule `COc1ccccc1CC(=O)C1=C(O)C(=O)N(c2nc3ccc(Cl)cc3s2)C1c1ccc(F)cc1` (stereo not shown) [Compound 484] came in with a melting point of 253 to 255 °C.
In turn, `Cc1ccc(C(=O)C2=C(O)C(=O)N(c3nc4cccnc4s3)C2c2cccc(C#N)c2)o1` (stereo not shown) [Compound 246] registered a melting point of 251 to 252 °C.
`Cc1ccc(C(=O)C2=C(O)C(=O)N(c3nc4c(Cl)cccc4s3)C2c2cccc3ccccc23)o1` (stereo not shown) [Compound 619] displayed a melting point of 249 to 250 °C.
`CC(=O)C1=C(O)C(=O)N(c2nc3ccc(F)cc3s2)C1c1ccc(F)cc1` (stereo not shown) [Compound 423] displayed a melting point of 238 to 239 °C.
For the molecule `CCOC(=O)CCC(=O)C1=C(O)C(=O)N(c2nc3ccc(Cl)cc3s2)C1c1ccc(F)cc1` (stereo not shown) [Compound 494], the melting point lay in the range of 224 to 225 °C.
As for `CCOC(=O)CCC(=O)C1=C(O)C(=O)N(c2nc3ccc(F)cc3s2)C1c1ccc(Cl)cc1` (stereo not shown) [Compound 498], the figure is 219 to 220 °C.
For the molecule `Cc1ccc(C(=O)C2=C(O)C(=O)N(c3nc4ccc(Cl)cc4s3)C2c2ccc(Oc3ccccc3)cc2)o1` (stereo not shown) [Compound 467], the melting point lay within 238 to 239 °C.
The molecule `Cc1ccc(C(=O)C2=C(O)C(=O)N(CCc3c[nH]c4ccccc34)C2c2ccc(Cl)cc2)o1` (stereo not shown) [Compound 595] showed a melting point of 165 to 166 °C.
On to `CCOc1ccc2nc(N3C(=O)C(O)=C(C(=O)c4ccc(C)o4)C3c3ccc(O)c(O)c3)sc2c1` (stereo not shown) [Compound 221], for which the melting point was in the range of 259 to 260 °C.
`Cc1ccc(C(=O)C2=C(O)C(=O)N(c3nc4c(Cl)cccc4s3)C2c2ccccc2C)o1` (stereo not shown) [Compound 628] registered a melting point of 244 to 245 °C.
On to `COCC(=O)C1=C(O)C(=O)N(c2nc3ccc(F)cc3s2)C1c1ccccc1F` (stereo not shown) [Compound 443], for which the melting point was in the range of 228 to 229 °C.
`Cc1ccc(C(=O)C2=C(O)C(=O)N(c3ncnc4[nH]cnc34)C2c2cccc([N+](=O)[O-])c2)o1` (stereo not shown) [Compound 224] returned a melting point of 266 to 267 °C.
`Cc1ccc(C(=O)C2=C(O)C(=O)N(C3CCCCC3)C2c2ccccc2F)o1` (stereo not shown) [Compound 432] showed a melting point of 195 to 196 °C.
For the molecule `O=C(C1=C(O)C(=O)N(c2nc3ccc(Cl)cc3s2)C1c1ccccc1F)C1CC1` (stereo not shown) [Compound 451], the melting point was in the range of 246 to 247 °C.
